Target: human GlyT1c transporter (Homo sapiens (Human), UniProt P48067)
Test: Radioligand binding assays using recombinant CHO cell membranes expressing human GlyT1
Settings: not given

Sequence of human GlyT1c transporter (P48067 whole entry): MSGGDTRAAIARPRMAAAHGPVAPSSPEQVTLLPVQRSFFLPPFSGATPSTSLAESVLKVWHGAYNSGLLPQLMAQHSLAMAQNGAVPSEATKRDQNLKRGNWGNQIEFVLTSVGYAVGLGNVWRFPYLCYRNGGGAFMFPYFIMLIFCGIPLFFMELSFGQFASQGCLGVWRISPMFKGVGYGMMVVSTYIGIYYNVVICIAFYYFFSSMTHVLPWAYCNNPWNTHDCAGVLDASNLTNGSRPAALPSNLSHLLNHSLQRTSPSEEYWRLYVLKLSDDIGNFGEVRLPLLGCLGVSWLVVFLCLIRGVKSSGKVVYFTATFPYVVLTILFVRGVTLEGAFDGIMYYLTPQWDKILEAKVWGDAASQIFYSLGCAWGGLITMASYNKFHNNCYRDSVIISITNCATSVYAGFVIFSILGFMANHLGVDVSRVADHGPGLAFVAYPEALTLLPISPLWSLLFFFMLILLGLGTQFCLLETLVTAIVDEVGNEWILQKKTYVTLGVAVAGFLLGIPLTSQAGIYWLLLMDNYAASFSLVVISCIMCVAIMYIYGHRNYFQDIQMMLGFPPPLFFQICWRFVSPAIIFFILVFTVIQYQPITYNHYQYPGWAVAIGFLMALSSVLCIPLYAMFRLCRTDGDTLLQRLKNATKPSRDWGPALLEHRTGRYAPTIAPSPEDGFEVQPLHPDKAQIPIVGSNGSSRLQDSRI

Q: For `Cn1cnc(S(=O)(=O)N2C[C@@H](C(=O)c3cc(Cl)cc(Cl)c3)[C@H](c3ccc(F)cc3)C2)c1` (relative stereo) [Example 360, (3,5-Dichlorophenyl) {trans-4-(4-fluorophenyl)-1-[(1-methyl-1H-imidazol-4-yl)sulfonyl]pyrrolidin-3-yl}methanone], which Ki is on record?
A: The Ki was no more than 100 nM.

Same assay, conditions: radioligand binding, human GlyT1c transporter-expressing CHO cell membranes

Q: For `Cn1cnc(S(=O)(=O)N2C[C@H](Nc3cccc(C#N)c3)[C@@H](c3ccc(F)cc3)C2)c1` [Example 380, 3-({(3R,4S)-4-(4-fluorophenyl)-1-[(1-methyl-1H-imidazol-4-yl)sulfonyl]pyrrolidin-3-yl}-amino)benzonitrile], which Ki is on record?
A: The Ki was no more than 100 nM.

Q: `Cc1cc(N[C@H]2CN(S(=O)(=O)c3cn(C)cn3)C[C@@H]2c2ccc(F)cc2)ncc1F` [Example 748, 5-fluoro-N-{(3R,4S)-4-(4-fluorophenyl)-1-[(1-methyl-1H-imidazol-4-yl)sulfonyl]pyrrolidin-3-yl}-4-methylpyridin-2-amine] was tested. Which Ki did it give?
A: Its Ki is no more than 10 nM.

Q: For `Cn1cnc(S(=O)(=O)N2C[C@@H](c3ccccc3)[C@](C)(NCc3ccc(Cl)cc3)C2)c1` (relative stereo) [Example 354, Trans-N-(4-chlorobenzyl)-3-methyl-1-[(1-methyl-1H-imidazol-4-yl)sulfonyl]-4-phenylpyrrolidin-3-amine], which Ki is on record?
A: The Ki was no more than 1000 nM.

Q: Which Ki does the source give for `Cn1cnc(S(=O)(=O)N2C[C@@H](Nc3cccc(C#N)c3)[C@H](c3ccc(F)cc3)C2)c1` [Example 389, 3-({(3S,4R)-4-(4-fluorophenyl)-1-[(1-methyl-1H-imidazol-4-yl)sulfonyl]pyrrolidin-3-yl}amino)benzonitrile] here?
A: The Ki was no more than 10000 nM.

Q: For `O=S(=O)(c1ccc(Cl)s1)N1CC(Nc2ccc(F)c(F)c2)C(c2ccccc2)C1` (stereo not shown) [Example 511, 1-[(5-chlorothiophen-2-yl)sulfonyl]-N-(3,4-difluorophenyl)-4-phenylpyrrolidin-3-amine], which Ki is on record?
A: The Ki was no more than 10000 nM.

Q: Which Ki does the source give for `Cn1cnc(S(=O)(=O)N2C[C@@H]([C@@H]3CCCOC3)[C@H](Nc3cccc(OCC(F)(F)F)c3)C2)c1` (mixture of isomers) [Example 785, trans-1-[(1-methyl-1H-imidazol-4-yl)sulfonyl]-4-[(3S)-tetrahydro-2H-pyran-3-yl]-N-[3-(2,2,2-trifluoroethoxy)phenyl]pyrrolidin-3-amine] here?
A: The Ki was no more than 100 nM.

Q: With `Cc1nn(C)c(C)c1S(=O)(=O)N1CC(Nc2ccc(F)c(F)c2)C(c2ccccc2)C1` (stereo not shown) [Example 508, N-(3,4-difluorophenyl)-4-phenyl-1-[(1,3,5-trimethyl-1H-pyrazol-4-yl)sulfonyl]pyrrolidin-3-amine] as the compound, how does the Ki read?
A: Its Ki is no more than 10000 nM.

Q: Which Ki does the source give for `O=S(=O)(C1CCC1)N1CC(Nc2ccc(F)c(F)c2)C(c2ccccc2)C1` (stereo not shown) [Example 509, 1-(cyclobutylsulfonyl)-N-(3,4-difluorophenyl)-4-phenylpyrrolidin-3-amine] here?
A: The Ki was no more than 10000 nM.

Q: `CCCCCCN[C@H]1CN(S(=O)(=O)c2cn(C)cn2)C[C@@H]1c1ccccc1` [Example 548, (3R,4S)—N-hexyl-1-[(1-methyl-1H-imidazol-4-yl)sulfonyl]-4-phenylpyrrolidin-3-amine] was tested. Which Ki did it give?
A: Its Ki is no more than 10 nM.

Q: How did the Ki turn out when `Cc1ccc(CN[C@H]2CN(S(=O)(=O)c3cn(C)cn3)C[C@@H]2c2ccccc2)s1` [Example 462, (3R,4S)-1-[(1-methyl-1H-imidazol-4-yl)sulfonyl]-N-[(5-methylthiophen-2-yl)methyl]-4-phenylpyrrolidin-3-amine] was run?
A: Its Ki is no more than 100 nM.

Q: Which Ki does the source give for `Cn1cnc(S(=O)(=O)N2C[C@H](Nc3ccc(F)c(Cl)c3)[C@@H](c3ccc(F)cc3)C2)c1` [Example 352, (3R,4S)—N-(3-chloro-4-fluorophenyl)-4-(4-fluorophenyl)-1-[(1-methyl-1H-imidazol-4-yl)sulfonyl]pyrrolidin-3-amine] here?
A: Its Ki is no more than 10 nM.

Q: Which Ki does the source give for `CCCOc1cc(N[C@H]2CN(S(=O)(=O)c3cn(C)cn3)C[C@@H]2c2ccccc2)ncn1` [Example 622, N-{(3R,4S)-1-[(1-methyl-1H-imidazol-4-yl)sulfonyl]-4-phenylpyrrolidin-3-yl}-6-propoxypyrimidin-4-amine] here?
A: The Ki was no more than 100 nM.

From patent US9656955B2, “Pyrrolidine derivatives, pharmaceutical compositions containing them, and their use in therapy” (AbbVie Deutschland GmbH & Co. KG, priority 2013, dated 2017)
